Data published in ChEMBL document CHEMBL5523678, “Synthesis and clinical application of new drugs approved by FDA in 2023” (Eur J Med Chem, 2024).

Key:
[1] = Inhibition of Gamma secretase (unknown origin); design: species or system Homo sapiens
[2] = Inhibition of Drosophila melanogaster GABA receptor

Row | SMILES | IC50 [1] | IC50 [2]
1 | CCC[C@H](N[C@H]1CCc2cc(F)cc(F)c2C1)C(=O)Nc1cn(C(C)(C)CNCC(C)(C)C)cn1 [NIROGACESTAT] | 6.2 nM | 
2 | Cc1cc(C2=NO[C@@](c3cc(Cl)c(Cl)c(Cl)c3)(C(F)(F)F)C2)sc1C(=O)NCC(=O)NCC(F)(F)F [LOTILANER] |  | 23.8 nM
